Experimental data: ChEMBL document CHEMBL5532636 (Eur J Med Chem, 2023)
Values after ≈ are worked out from the molar mass of the structure shown.

How the values were obtained:
[1] = target: Replicase polyprotein 1ab (Severe acute respiratory syndrome coronavirus 2, UniProt P0DTD1); assay: Inhibition of SARS-CoV-2 PLpro using Ubiquitin-AMC as substrate by continuous kinetic assay
[2] = Oral bioavailability in monkey; format: ADME, organism-based, Macaca mulatta; conditions: rhesus monkey, in vivo
[3] = Aqueous solubility of compound; format: physicochemical; conditions: buffer
[4] = test system: Severe acute respiratory syndrome coronavirus 2; assay: Binding affinity to SARS-CoV-2 nsp12 assessed as change in melting temperature preincubated for 20 mins followed by heating by thermal shift assay
[5] = Cytotoxicity against African green monkey Vero cells; format: toxicity, cell-based; conditions: chlorocebus sabaeus
[6] = test system: SARS-CoV-2; assay: Inhibition of SARS-CoV-2 pseudovirus entry in human Huh-7 cells at 30 uM preincubated with cell culture for 1 hr followed by pseudovirus infection measured after 48 hrs by luciferase reporter gene assay relative to control; format: functional; conditions: Severe acute respiratory syndrome coronavirus 2, Huh-7, time 49 hrs
[7] = Cytotoxicity against African green monkey Vero cells incubated for 4 days by MTS assay; format: toxicity, cell-based; conditions: chlorocebus sabaeus, time 4 day
[8] = Cytotoxicity against human Calu-3 cells incubated for 4 days by MTS assay; format: toxicity, cell-based; conditions: time 4 day
[9] = Cytotoxicity against African green monkey Vero cells by CCK8 assay; format: toxicity, cell-based; conditions: chlorocebus sabaeus
[10] = test system: Human coronavirus OC43; assay: (§1) Antiviral activity against HCoV-OC43 infected in human HRT-18 cells assessed as inhibition in viral replication at 12.5 ug/ml preincubated with cell culture for 1 hr and further infected with virus for 1 hr followed by removal of virus particles and subsequent replacement of medium containing compound measured for 96 hrs post-infection by RT-PCR analysis relative to control; format: functional, HRT-18 cell line; conditions: Betacoronavirus 1, HRT-18, time 97 hrs
[11] = test system: Bovine coronavirus; assay: as §1, with “B-CoV” for “HCoV-OC43”, “25” for “12.5”; format: functional, HRT-18 cell line; conditions: Betacoronavirus 1, HRT-18, time 98 hrs
[12] = Inhibition of C-terminal GST-tagged full-length recombinant SARS-CoV 3CLpro expressed in Escherichia coli BL21(DE3) using MCA-AVLQSGFR-Lys(Dnp)-Lys-NH2 as substrate preincubated for 10 mins followed by substrate addition measured for 3.5 mins by FRET assay; design: species or system Severe acute respiratory syndrome-related coronavirus
[13] = target: Replicase polyprotein 1ab (Severe acute respiratory syndrome coronavirus 2) (UniProt P0DTD1); assay: Inhibition of SARS-CoV-2 3CLpro at 100 ug/ml preincubated for 30 mins followed by substrate addition measured after 4 hrs by fluorescence assay relative to control; conditions: dose 100.0 µg/ml, time 4.5 hrs
[14] = target: Replicase polyprotein 1ab (Severe acute respiratory syndrome coronavirus 2) (UniProt P0DTD1); assay: Inhibition of full-length SARS-CoV-2 PLpro expressed in Escherichia coli BL21(DE3) using RLRGG-AMC as substrate at 50 uM preincubated for 10 mins followed by substrate addition measured for 5 mins by FRET assay relative to control; conditions: time 15.0 min
[15] = target: Replicase polyprotein 1ab (Severe acute respiratory syndrome coronavirus 2) (UniProt P0DTD1); assay: Binding affinity to SARS-CoV-2 nsp14 assessed as change in melting temperature preincubated for 20 mins followed by heating by thermal shift assay
[16] = test system: Severe acute respiratory syndrome coronavirus 2; assay: Binding affinity to SARS-CoV-2 nsp5 assessed as change in melting temperature preincubated for 20 mins followed by heating by thermal shift assay
[17] = target: Xanthine dehydrogenase/oxidase (Bos taurus, UniProt P80457); assay: Inhibition of bovine milk xanthine oxidase using xanthine as substrate preincubated for 30 mins followed by substrate addition measured for 200 secs by spectrophotometry
[18] = Antioxidant activity assessed as DPPH radical scavenging activity at 200 uM measured after 2 mins by ESR spectroscopy relative to control; format: functional
[19] = Antioxidant activity assessed as DPPH radical scavenging activity at 50 uM measured after 2 mins by ESR spectroscopy relative to control; format: functional
[20] = Antioxidant activity assessed as DPPH radical scavenging activity at 25 uM measured after 2 mins by ESR spectroscopy relative to control; format: functional
[21] = target: T1, Xanthine dehydrogenase/oxidase (Homo sapiens, UniProt P47989); assay: Inhibition of xanthine oxidase (unknown origin)
[22] = Cmax in Sprague-Dawley rat at 224 umol/kg, po measured for 2160 mins; format: ADME, organism-based; conditions: in vivo, 36 h, dose 224 µmol/kg
[23] = AUC (0 to 360 min) in Sprague-Dawley rat at 224 umol/kg, po; format: ADME; conditions: in vivo, 6 h, dose 224 µmol/kg
[24] = Drug metabolism in Sprague-Dawley rat assessed as circulating drug conjugates by measuring AUC (0 to 360 min) at 37 umol/kg, iv; format: ADME; conditions: in vivo, 6 h, dose 37 µmol/kg
[25] = AUC (0 to 360 min) in Sprague-Dawley rat at 37 umol/kg, iv; format: ADME; conditions: in vivo, 6 h, dose 37 µmol/kg
[26] = Oral bioavailability in rat; format: ADME, organism-based; conditions: in vivo
[27] = Apparent permeability in human Caco-2 cells measured for 30 to 180 mins by HPLC analysis; format: ADME, cell-based; conditions: time 30-180 min
[28] = Solubility of compound in water; format: physicochemical
[29] = test system: SARS-CoV-2; assay: Antiviral activity against SARS-CoV-2 TY/WK-521 infected in African green monkey Vero E6 cells assessed as reduction in viral replication preincubated with cell culture for 1 hr and further infected with virus for 2 hrs followed by compound washout and subsequent addition of medium containing compounds measured for 48 hrs post-infection by qRT-PCR analysis; format: functional, organism-based; conditions: Severe acute respiratory syndrome coronavirus 2, TY/WK-521, Vero C1008
[30] = Cytotoxicity against African green monkey Vero E6 cells assessed as reduction in cell viability incubated for 3 days by MTT assay; format: toxicity, cell-based, Vero C1008; conditions: chlorocebus sabaeus, time 3 day
[31] = test system: SARS-CoV-2; assay: Antiviral activity against SARS-CoV-2 infected in African green monkey Vero cells assessed as reduction in viral replication; format: functional, organism-based; conditions: Severe acute respiratory syndrome coronavirus 2, Vero
[32] = target: Angiotensin-converting enzyme 2 (Homo sapiens) (UniProt Q9BYF1); assay: Inhibition of ACE2 in human SAEC cells at 25 uM incubated for 6 days by ELISA relative to control; format: cell-based; conditions: time 6.0 day
[33] = target: Angiotensin-converting enzyme 2 (Homo sapiens) (UniProt Q9BYF1); assay: Synergistic inhibition of ACE2 in human SAEC cells at 25 uM incubated for 6 days in presence of ascorbic acid by ELISA relative to control; format: cell-based; conditions: time 6.0 day
[34] = target: T2, Renin (Homo sapiens, UniProt P00797); assay: Inhibition of recombinant human renin using Arg-Glu(EDANS)-lle-His-Pro-Phe-His-Leu-Val-lle-His-Thr-Lys(dabcyl)-Arg as substrate incubated for 5 to 10 mins by fluorescence based assay
T2 sequence (P00797 whole entry): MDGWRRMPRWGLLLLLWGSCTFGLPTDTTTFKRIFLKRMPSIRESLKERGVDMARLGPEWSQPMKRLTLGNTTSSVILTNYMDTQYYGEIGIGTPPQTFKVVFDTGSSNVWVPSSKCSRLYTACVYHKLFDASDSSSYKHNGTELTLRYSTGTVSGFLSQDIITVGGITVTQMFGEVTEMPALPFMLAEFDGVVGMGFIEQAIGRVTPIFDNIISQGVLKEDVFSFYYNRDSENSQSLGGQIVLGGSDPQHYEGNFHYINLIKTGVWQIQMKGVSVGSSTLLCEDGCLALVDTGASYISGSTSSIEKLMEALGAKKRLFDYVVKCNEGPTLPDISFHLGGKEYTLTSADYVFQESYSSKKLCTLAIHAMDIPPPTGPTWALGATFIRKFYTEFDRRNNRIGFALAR

[35] = target: Angiotensin-converting enzyme (Homo sapiens, UniProt P12821); assay: Inhibition of ACE (unknown origin) using Hippuryo-histidyl-leucine as substrate incubated for 40 mins by absorbance based assay
[36] = Inhibition of SARS-CoV-2 nsp15 endonuclease activity using 5'-FAM-dArUdAdAdA-TAMRA-3' as substrate measure for 1 hr by fluorescence based assay; design: species or system Severe acute respiratory syndrome coronavirus 2
[37] = test system: SARS-CoV-2; assay: Antiviral activity against SARS-CoV-2 NCCP 43326 infected in African green monkey Vero cells assessed as reduction in viral infection preincubated with cell culture for 30 mins and further infected with virus measured after 72 hrs by plaque reduction neutralization test method; format: functional, organism-based; conditions: Severe acute respiratory syndrome coronavirus 2, NCCP 43326, Vero
[38] = test system: Influenza A virus; assay: Antiviral activity against Influenza A virus H1N1 FM/1/47 infected in BALB/c mouse assessed as decrease in recruitment of M1-polarized CD11b+ and F4/80+ macrophages in BALF at 80 mg/kg/day, po qd for 7 days by flow cytometry relative to control; format: functional; design: scale not given: the % may be the effect or the level left; conditions: time 7 day
[39] = test system: Influenza A virus; assay: Antiviral activity against Influenza A virus H1N1 FM/1/47 infected in BALB/c mouse assessed as macrophage polarization in BALF at 80 mg/kg/day, po qd for 7 days by flow cytometry (reference value: 95 %); format: functional; conditions: time 7 day
[40] = target: T1, Xanthine dehydrogenase/oxidase; assay: Inhibition of xanthine oxidase (unknown origin) using xanthine as substrate preincubated for 30 mins followed by substrate addition by spectrophotometry

T1 sequence (P47989 whole entry): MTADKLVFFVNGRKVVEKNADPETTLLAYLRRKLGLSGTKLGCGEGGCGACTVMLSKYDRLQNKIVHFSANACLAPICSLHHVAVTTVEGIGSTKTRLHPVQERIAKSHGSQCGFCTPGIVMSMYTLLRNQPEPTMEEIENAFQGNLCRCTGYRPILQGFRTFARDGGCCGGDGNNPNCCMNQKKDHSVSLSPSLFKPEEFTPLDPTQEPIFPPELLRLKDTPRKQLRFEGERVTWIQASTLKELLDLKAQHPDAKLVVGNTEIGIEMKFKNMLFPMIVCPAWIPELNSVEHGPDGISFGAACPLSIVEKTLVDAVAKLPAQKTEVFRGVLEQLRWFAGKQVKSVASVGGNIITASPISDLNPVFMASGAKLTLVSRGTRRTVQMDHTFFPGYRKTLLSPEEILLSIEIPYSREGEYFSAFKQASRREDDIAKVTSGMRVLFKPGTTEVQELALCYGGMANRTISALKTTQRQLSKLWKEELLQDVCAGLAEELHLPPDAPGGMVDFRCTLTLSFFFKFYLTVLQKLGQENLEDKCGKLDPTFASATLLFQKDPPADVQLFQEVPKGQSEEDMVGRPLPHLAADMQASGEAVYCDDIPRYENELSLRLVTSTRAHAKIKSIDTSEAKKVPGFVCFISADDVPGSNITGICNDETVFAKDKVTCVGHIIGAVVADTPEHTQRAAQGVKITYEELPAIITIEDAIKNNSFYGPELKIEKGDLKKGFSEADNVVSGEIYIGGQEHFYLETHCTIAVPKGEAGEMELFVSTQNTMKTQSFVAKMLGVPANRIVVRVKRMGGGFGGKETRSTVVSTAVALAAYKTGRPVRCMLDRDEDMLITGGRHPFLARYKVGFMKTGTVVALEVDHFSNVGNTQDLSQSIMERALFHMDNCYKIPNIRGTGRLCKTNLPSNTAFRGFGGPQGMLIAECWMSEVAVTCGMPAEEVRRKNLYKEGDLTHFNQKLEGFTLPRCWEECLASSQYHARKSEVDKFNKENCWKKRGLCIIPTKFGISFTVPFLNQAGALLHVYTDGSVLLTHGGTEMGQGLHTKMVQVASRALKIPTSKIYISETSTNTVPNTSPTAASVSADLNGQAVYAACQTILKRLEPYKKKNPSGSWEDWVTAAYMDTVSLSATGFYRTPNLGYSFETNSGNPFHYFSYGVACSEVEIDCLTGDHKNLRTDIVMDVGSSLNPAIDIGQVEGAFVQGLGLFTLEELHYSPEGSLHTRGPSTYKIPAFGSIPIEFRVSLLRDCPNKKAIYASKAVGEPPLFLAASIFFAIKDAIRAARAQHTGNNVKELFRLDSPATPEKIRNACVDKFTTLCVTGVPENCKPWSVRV
Sequence of Xanthine dehydrogenase/oxidase (Bos taurus, UniProt P80457) (P80457 whole entry): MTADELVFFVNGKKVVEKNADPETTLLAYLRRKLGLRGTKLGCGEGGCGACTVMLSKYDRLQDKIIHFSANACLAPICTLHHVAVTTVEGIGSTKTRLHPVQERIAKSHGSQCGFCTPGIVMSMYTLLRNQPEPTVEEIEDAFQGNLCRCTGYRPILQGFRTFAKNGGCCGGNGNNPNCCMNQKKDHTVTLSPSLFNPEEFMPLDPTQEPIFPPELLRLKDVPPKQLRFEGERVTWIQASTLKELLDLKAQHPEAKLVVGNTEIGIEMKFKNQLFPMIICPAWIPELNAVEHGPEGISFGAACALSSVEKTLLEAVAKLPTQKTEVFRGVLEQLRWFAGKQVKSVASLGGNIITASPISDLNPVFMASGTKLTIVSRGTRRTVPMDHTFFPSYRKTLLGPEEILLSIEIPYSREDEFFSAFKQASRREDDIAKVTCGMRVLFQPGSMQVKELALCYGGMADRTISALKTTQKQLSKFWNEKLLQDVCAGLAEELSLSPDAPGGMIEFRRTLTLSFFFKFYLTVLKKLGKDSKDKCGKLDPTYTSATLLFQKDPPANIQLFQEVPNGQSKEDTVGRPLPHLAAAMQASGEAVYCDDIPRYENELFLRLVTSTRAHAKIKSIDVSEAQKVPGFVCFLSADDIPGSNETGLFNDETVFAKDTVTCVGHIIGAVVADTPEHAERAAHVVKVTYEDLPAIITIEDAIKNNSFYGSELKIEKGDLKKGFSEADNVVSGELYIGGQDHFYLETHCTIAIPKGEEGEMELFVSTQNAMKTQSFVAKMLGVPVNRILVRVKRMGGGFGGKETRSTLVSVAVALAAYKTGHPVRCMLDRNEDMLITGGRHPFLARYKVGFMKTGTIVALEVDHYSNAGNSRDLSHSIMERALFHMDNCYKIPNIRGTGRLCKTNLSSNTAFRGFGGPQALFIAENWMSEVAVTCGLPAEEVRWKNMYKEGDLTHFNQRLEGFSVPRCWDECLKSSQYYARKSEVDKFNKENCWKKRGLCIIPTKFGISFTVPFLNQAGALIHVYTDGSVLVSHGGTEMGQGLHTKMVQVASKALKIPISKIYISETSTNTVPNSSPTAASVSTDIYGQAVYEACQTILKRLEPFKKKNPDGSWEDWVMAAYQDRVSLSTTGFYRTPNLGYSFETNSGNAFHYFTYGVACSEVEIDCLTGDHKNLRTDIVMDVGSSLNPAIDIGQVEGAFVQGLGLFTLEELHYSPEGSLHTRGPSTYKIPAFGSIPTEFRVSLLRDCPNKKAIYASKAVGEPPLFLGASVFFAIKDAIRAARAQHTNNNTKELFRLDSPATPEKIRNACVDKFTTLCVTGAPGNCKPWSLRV
Sequence of Angiotensin-converting enzyme 2 (Homo sapiens) (Q9BYF1 18-805 limits assumed): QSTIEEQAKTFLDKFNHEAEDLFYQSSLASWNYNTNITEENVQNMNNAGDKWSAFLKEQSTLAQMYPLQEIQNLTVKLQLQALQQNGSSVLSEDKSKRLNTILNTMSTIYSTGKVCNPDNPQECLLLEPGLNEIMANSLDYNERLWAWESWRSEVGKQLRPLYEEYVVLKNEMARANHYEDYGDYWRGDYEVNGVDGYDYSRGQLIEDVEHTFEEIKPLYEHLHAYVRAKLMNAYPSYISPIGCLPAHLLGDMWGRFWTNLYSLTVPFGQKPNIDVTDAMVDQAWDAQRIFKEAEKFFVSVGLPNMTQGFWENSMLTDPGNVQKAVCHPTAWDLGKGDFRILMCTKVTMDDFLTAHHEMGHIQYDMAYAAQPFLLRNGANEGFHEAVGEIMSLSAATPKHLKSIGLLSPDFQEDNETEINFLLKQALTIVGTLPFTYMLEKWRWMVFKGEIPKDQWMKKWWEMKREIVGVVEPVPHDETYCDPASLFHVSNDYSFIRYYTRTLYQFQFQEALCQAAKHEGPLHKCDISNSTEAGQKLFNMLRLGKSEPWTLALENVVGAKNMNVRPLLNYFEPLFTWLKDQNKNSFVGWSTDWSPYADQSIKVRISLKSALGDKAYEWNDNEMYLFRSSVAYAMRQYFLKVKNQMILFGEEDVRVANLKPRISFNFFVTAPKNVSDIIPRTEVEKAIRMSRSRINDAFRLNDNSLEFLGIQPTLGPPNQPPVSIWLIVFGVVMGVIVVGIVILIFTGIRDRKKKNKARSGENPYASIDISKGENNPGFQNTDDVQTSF
Sequence of Angiotensin-converting enzyme (P12821 whole entry): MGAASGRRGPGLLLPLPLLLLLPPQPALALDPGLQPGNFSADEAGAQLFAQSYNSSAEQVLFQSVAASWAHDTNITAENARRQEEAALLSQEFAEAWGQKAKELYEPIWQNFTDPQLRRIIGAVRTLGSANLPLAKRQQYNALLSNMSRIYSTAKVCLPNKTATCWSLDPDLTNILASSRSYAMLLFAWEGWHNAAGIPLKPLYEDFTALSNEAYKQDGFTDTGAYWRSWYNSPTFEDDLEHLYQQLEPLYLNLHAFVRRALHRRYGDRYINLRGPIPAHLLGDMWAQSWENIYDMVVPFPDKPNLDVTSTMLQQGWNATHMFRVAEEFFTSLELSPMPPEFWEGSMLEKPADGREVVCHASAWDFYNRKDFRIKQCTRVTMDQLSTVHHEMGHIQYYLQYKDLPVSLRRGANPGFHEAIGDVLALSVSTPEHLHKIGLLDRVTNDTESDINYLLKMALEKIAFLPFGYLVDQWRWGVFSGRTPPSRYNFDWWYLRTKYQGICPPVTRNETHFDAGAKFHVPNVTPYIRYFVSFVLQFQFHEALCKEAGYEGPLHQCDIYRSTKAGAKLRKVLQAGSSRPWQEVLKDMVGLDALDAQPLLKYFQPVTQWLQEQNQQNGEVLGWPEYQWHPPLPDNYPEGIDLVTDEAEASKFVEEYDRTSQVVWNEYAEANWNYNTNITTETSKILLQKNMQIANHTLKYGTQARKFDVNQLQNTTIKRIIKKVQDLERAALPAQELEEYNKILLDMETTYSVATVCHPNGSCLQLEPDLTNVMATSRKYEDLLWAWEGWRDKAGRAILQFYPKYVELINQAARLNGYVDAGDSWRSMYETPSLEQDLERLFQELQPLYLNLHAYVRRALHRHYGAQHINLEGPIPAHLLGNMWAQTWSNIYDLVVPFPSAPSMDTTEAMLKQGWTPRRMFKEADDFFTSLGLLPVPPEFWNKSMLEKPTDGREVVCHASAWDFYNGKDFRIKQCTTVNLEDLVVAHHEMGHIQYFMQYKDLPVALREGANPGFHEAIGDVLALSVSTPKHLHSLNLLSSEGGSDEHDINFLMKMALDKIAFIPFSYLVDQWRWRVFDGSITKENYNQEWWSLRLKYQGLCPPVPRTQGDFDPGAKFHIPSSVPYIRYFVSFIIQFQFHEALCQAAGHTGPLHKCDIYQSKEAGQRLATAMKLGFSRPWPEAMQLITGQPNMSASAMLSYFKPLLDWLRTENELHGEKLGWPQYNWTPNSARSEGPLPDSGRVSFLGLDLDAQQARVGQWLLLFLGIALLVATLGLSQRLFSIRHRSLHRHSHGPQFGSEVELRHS

Compound CC(=O)Nc1ccc(C)c(C(=O)N[C@H](C)c2cccc3ccccc23)c1 has an IC50 [1] of 1.73 µM.

O=c1cc(-c2ccccc2)oc2cc(O)c(O)c(O)c12 [BAICALEIN] gave a bioavailability [2] of 13.1%, a solubility [3] of 16.8 µg/mL (≈ 62.2 µM) and a ΔTm [4] of 3.9 °C. For the same compound, the CC50 [5] was over 200 µM, the inhibition at 30 µM [6] was 14.6% and the CC50 at 96 h [7] was 8.6 µM. It also gave a CC50 at 96 h [8] of 9.1 µM, a CC50 [9] of over 500 µM and an inhibition at 12.5 µg/mL [10] of 100%. For the same compound, the inhibition at 25 µg/mL [11] was 89.8%, the IC50 [12] was 1.18 µM and the inhibition [13] was 94.7%. The inhibition [14] was under 50%, the ΔTm [15] was 1.5 °C and the ΔTm [16] was 0.9 °C. The IC50 [17] was 7.54 µM, the Activity [18] was over 50% and the Activity [19] was 55%. It also gave an Activity [20] of 69%, an IC50 [21] of 3.12 µM and a Cmax [22] of 13.6 nM/ml. The AUC [23] was 2980.5 nM.min/ml, the AUC [24] was 927.2 nM.min/ml and the AUC [25] was 297.6 nM.min/ml.

With O=C(O)[C@H]1O[C@@H](Oc2cc3oc(-c4ccccc4)cc(=O)c3c(O)c2O)[C@H](O)[C@@H](O)[C@@H]1O [BAICALIN] the F [26] was 2.2%, the Papp [27] was 0.037 ×10⁻⁶ cm/s and the solubility [28] was 67 µg/mL (≈ 150 µM). The EC50 [29] was 8.8 µM, the CC50 at 72 h [30] was over 1000 µM and the EC50 [31] was 10.3 µM. For the same compound, the CC50 [5] was over 200 µM, the inhibition [32] was 75% and the inhibition [33] was 82%. For the same compound, the IC50 [34] was 120 µM, the IC50 [35] was 2240 µM and the CC50 at 96 h [7] was over 100 µM. The CC50 at 96 h [8] was over 100 µM, the IC50 [36] was 7.98 µM and the EC50 [37] was 83.3 µM. The Activity [38] was about 90%, the Activity [39] was 97% and the IC50 [40] was 55.6 µM. For the same compound, the IC50 [17] was 123 µM, the Activity [19] was 17% and the Activity [20] was 42%. The IC50 [21] was 157 µM, the Cmax [22] was 2.9 nM/ml and the AUC [23] was 1943.7 nM.min/ml.
